Laboratory results published in paper PMC6199744, “Development of Chemical Proteomics for the Folateome and Analysis of the Kinetoplastid Folateome” (ACS Infectious Diseases, 2018).
Where two headings read alike, the source gives them in different places.

How the values were obtained:
Assay type in all cases: binding
[1] = target: T1, HeLa cell extract proteins (Homo sapiens, UniProt P31939)
T1 construct: endogenous in cells; host or cells: HeLa cell extract

[2] = target: T2, HeLa cell extract proteins (Homo sapiens, UniProt P35268)
T2 construct: endogenous in cells; host or cells: HeLa cell extract

[3] = target: T3, HeLa cell extract proteins (Homo sapiens, UniProt P55084)
T3 construct: endogenous in cells; host or cells: HeLa cell extract
T3 sequence (P55084 34-474): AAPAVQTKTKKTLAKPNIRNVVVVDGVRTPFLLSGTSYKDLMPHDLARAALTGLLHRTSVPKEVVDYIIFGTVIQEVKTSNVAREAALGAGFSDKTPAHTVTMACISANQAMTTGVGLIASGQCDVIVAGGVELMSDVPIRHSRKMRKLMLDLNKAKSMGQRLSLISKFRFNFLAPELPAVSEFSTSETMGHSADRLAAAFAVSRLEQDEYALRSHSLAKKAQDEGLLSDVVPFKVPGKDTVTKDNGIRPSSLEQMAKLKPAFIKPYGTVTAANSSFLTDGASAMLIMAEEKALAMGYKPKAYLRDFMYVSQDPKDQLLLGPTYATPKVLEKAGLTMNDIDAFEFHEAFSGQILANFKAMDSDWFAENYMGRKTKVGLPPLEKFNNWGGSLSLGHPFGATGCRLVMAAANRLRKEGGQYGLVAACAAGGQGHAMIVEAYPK

[4] = target: T4, HeLa cell extract proteins (Homo sapiens, UniProt P69905)
T4 construct: endogenous in cells; host or cells: HeLa cell extract
T4 sequence (P69905 whole entry): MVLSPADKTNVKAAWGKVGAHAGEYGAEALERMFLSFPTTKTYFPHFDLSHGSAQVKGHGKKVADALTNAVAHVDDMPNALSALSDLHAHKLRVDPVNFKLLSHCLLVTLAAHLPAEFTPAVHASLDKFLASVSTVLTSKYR

[5] = target: T5, HeLa cell extract proteins (Homo sapiens, UniProt Q7Z6Z7)
T5 construct: endogenous in cells; host or cells: HeLa cell extract
T5 sequence (Q7Z6Z7 whole entry): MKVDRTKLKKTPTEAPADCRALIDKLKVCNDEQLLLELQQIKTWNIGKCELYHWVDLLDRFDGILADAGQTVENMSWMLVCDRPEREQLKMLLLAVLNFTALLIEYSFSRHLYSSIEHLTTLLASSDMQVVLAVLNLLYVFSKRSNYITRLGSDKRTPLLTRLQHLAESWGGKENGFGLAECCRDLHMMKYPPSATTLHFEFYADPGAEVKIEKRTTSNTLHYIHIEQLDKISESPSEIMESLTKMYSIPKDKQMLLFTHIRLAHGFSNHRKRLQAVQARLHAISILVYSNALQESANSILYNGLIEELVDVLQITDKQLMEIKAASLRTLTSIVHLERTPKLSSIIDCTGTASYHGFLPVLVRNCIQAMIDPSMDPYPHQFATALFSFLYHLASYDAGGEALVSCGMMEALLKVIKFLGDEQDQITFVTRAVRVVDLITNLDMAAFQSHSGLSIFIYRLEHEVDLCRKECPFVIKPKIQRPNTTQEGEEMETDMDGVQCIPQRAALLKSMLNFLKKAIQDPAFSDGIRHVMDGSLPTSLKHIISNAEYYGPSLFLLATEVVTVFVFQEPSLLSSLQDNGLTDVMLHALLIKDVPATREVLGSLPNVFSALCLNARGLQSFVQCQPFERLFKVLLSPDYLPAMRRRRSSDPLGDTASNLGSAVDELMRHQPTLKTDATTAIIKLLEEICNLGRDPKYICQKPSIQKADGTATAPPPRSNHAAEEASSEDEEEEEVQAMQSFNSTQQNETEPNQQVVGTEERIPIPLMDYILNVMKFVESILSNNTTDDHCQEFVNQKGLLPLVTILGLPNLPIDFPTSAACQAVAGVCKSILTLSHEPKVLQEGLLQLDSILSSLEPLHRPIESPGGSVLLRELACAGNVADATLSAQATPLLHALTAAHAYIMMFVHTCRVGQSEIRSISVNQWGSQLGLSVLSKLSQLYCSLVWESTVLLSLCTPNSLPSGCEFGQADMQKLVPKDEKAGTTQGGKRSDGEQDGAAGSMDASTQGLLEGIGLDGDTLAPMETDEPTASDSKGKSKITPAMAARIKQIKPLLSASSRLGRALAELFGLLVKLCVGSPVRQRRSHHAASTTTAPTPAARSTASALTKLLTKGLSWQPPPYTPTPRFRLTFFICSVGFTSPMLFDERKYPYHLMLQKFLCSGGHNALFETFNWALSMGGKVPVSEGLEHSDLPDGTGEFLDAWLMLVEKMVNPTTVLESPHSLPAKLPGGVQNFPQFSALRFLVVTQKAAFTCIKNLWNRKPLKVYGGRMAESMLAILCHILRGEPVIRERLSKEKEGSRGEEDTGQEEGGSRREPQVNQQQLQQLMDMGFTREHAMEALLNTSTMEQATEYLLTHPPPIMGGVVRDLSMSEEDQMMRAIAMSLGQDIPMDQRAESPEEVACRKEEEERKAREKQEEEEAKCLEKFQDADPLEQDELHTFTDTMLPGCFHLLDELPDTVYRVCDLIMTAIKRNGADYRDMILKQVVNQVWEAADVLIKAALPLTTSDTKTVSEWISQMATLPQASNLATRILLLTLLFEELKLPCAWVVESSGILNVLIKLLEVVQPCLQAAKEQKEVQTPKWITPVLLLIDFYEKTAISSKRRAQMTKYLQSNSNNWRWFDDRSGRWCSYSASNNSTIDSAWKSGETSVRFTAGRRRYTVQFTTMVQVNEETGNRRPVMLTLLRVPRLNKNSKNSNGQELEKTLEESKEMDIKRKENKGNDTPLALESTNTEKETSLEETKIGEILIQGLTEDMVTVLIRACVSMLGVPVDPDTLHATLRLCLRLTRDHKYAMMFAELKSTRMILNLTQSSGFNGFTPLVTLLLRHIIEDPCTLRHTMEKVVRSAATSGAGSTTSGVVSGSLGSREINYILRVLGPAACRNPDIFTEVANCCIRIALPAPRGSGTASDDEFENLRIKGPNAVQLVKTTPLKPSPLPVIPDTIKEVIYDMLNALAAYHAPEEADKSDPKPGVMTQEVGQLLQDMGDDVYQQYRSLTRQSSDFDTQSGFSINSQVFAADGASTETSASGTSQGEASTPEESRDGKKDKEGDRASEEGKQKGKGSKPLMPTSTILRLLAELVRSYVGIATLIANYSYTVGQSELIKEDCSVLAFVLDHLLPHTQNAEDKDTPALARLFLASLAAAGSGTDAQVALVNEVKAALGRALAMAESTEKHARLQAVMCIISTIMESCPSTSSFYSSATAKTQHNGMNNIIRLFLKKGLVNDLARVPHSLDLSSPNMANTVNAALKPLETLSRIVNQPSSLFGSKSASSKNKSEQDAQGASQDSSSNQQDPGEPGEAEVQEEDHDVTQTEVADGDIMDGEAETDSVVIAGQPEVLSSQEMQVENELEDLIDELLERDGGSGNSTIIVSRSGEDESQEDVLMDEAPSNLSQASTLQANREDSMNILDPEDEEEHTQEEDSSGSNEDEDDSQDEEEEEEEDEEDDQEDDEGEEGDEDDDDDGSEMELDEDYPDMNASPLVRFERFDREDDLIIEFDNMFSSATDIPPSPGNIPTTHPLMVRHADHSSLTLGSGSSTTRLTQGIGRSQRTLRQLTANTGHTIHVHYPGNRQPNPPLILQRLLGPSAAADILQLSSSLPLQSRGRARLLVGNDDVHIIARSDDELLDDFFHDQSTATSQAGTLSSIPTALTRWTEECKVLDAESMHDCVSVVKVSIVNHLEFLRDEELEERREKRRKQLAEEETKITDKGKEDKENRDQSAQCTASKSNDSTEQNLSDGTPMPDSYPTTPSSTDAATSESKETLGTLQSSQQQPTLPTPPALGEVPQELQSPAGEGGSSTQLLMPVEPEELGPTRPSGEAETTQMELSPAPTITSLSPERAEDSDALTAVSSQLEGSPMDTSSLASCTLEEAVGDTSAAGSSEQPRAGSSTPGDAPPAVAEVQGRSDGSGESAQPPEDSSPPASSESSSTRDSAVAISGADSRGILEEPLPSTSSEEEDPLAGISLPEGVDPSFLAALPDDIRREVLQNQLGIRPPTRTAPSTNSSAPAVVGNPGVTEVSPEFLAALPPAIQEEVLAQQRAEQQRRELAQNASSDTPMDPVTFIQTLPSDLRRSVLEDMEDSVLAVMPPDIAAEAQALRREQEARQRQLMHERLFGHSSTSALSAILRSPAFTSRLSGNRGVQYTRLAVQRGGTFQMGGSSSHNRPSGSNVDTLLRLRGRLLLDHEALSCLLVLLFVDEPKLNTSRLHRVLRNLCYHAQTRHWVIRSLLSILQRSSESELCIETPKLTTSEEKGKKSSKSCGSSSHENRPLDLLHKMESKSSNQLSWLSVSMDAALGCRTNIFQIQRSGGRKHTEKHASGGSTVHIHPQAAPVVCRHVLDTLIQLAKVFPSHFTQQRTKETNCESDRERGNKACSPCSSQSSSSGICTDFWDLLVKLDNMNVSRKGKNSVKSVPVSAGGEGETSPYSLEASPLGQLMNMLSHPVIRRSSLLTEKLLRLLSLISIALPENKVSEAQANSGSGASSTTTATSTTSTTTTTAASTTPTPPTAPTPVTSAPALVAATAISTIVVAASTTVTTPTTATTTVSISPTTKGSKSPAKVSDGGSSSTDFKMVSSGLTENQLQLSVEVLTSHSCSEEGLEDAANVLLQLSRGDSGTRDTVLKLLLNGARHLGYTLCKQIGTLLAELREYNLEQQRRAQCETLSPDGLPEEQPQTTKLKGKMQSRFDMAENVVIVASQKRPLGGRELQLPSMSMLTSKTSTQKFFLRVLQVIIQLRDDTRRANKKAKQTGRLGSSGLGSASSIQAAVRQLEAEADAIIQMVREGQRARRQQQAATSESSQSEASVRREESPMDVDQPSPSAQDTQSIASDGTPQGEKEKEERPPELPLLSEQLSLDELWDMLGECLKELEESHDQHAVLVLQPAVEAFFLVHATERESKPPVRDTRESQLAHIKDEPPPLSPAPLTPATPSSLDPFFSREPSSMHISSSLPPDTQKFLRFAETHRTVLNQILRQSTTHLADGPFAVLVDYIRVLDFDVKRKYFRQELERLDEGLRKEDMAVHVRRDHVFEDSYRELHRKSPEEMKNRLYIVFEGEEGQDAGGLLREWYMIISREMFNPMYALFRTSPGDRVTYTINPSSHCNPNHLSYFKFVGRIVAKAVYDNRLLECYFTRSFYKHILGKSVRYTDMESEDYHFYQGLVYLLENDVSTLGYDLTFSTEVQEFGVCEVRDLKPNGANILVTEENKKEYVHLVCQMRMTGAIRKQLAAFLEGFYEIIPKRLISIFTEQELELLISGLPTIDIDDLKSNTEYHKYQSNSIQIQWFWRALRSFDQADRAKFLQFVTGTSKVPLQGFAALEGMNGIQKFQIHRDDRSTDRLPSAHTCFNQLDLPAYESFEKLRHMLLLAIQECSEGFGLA

[6] = target: T6, HeLa cell extract proteins (Homo sapiens, UniProt Q9UPN7)
T6 construct: endogenous in cells; host or cells: HeLa cell extract
T6 sequence (Q9UPN7 1-881): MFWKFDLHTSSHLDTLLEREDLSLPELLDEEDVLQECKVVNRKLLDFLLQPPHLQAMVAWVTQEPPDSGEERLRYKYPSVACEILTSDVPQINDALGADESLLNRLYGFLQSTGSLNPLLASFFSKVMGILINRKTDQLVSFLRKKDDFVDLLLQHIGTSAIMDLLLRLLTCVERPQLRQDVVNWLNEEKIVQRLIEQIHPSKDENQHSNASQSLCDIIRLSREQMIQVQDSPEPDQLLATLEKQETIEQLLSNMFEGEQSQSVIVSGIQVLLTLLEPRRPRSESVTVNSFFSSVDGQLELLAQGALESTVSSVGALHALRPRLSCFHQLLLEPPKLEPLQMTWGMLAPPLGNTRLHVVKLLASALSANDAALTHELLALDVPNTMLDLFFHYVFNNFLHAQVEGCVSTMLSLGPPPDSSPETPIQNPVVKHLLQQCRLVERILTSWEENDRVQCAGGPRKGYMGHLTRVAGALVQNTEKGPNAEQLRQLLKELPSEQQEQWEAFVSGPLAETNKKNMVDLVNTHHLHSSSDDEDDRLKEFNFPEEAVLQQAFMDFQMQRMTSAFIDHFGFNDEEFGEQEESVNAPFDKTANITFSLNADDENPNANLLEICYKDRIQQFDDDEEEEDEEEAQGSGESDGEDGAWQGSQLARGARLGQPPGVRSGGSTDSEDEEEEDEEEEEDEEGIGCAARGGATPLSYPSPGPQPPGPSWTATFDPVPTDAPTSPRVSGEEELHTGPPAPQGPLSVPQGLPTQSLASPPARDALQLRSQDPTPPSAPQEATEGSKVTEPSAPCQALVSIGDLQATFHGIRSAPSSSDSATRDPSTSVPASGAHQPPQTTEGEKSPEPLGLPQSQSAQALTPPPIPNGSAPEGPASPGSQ

[7] = target: T7, HeLa cell extract proteins (Homo sapiens, UniProt O00483); settings: captured protein NDUFA4; HeLa
T7 construct: endogenous in cells; host or cells: HeLa cell extract
T7 sequence (O00483 whole entry): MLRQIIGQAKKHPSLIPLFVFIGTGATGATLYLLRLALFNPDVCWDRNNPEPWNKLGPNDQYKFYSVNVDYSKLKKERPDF

[8] = target: T8, HeLa cell extract proteins (Homo sapiens, UniProt Q00653); settings: protein NFKB2; HeLa
T8 construct: endogenous in cells; host or cells: HeLa cell extract
T8 sequence (Q00653 1-900): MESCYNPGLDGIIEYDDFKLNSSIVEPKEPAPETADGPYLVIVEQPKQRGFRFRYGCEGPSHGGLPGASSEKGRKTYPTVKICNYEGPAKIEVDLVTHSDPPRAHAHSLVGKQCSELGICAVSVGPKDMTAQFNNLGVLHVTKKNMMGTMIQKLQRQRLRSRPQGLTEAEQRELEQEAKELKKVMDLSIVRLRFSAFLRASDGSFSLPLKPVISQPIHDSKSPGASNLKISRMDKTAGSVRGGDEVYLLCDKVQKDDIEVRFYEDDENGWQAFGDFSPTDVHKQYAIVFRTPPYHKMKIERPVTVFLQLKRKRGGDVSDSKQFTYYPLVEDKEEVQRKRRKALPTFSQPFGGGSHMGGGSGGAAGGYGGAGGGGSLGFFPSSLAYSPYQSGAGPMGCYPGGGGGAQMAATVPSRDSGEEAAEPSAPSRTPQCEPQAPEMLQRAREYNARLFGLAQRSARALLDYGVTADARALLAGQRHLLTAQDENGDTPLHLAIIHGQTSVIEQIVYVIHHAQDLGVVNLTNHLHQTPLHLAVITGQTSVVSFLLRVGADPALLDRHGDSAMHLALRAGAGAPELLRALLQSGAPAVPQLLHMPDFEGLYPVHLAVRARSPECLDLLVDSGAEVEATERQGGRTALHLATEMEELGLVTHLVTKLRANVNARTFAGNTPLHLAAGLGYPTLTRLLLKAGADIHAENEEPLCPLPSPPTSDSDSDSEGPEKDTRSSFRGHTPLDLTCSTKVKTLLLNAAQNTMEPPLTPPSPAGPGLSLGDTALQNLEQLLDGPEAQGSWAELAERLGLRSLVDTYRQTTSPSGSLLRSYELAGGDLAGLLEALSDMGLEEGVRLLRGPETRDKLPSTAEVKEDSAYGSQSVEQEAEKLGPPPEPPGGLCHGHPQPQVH

[9] = target: T9, HeLa cell extract proteins (Homo sapiens, UniProt Q5BJD5); settings: captured protein TMEM41B; HeLa
T9 construct: endogenous in cells; host or cells: HeLa cell extract
T9 sequence (Q5BJD5 1-291): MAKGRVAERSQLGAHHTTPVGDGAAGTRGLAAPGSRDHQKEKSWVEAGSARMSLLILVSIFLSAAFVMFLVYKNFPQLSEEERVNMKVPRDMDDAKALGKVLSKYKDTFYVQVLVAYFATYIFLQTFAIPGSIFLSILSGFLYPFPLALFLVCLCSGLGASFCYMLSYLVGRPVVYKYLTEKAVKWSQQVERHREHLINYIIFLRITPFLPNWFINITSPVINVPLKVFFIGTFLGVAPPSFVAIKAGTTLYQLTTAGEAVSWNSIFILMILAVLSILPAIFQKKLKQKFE

[10] = HeLa, protein HBA1 (HEMOGLOBIN SUBUNIT ALPHA)
[11] = HeLa, protein SAPS1 (SAPS1 PROTEIN)

| SMILES | fold changes relative to vehicle control ([1]; HeLa, protein ATIC) | fold changes relative to vehicle control ([2]; HeLa, protein RPL22) | fold changes relative to vehicle control ([3]; HeLa, protein HADHB) | fold changes relative to vehicle control [4, 10] | fold changes relative to vehicle control ([5]; HeLa, protein HUWE1) | fold changes relative to vehicle control [6, 11] | fold changes relative to vehicle control [7] | fold changes relative to vehicle control [8] | fold changes relative to vehicle control [9] | other results |
| --- | --- | --- | --- | --- | --- | --- | --- | --- | --- | --- |
| Nc1nc2c(c(=O)[nH]1)N(C=O)C(CNc1ccc(C(=O)N[C@@H](CCC(=O)O)C(=O)O)cc1)CN2 (stereo partly drawn) [LEU, leucovorin] | 1.06 | 0.86 | 0.85 | 1.29 | 0.98 | 1.01 |  |  |  |  |
| Nc1nc2[nH]cc(CCc3ccc(C(=O)N[C@@H](CCC(=O)O)C(=O)O)cc3)c2c(=O)[nH]1 [PTX, pemetrexed] |  |  |  |  |  |  |  |  |  | fold changes relative to vehicle control [1]: 0.91; fold changes relative to vehicle control [2]: 0.98; fold changes relative to vehicle control [3]: 0.94; fold changes relative to vehicle control [4]: 0.97; fold changes relative to vehicle control [5]: 1.02; fold changes relative to vehicle control [6]: 1.49 |
| CCCCCCOc1ccc(Cc2cnc(N)nc2N)cc1 [compound 1] |  |  |  |  |  |  | 0.8 | 0.9 | 1.09 |  |
| CCCCCCOc1cccc(Cc2cnc(N)nc2N)c1 [compound 2] |  |  |  |  |  |  | 1.17 | 1.24 | 1.09 |  |
| Nc1nc2cccc(-c3ccccc3)c2n1Cc1ccc(Cl)c(Cl)c1 [compound 3] |  |  |  |  |  |  | 0.82 | 0.9 | 1.08 |  |
| NCCOCCOCC(=O)Nc1nc2ncc(CNc3ccc(C(=O)NC(CCC(=O)O)C(=O)O)cc3)nc2c(=O)[nH]1 (stereo not drawn) [compound 6] | 1.13 | 1.2 | 1.12 | 1.05 | 1.23 | 1.29 |  |  |  |  |
| NCCCNc1ccc(C(=O)NC(CCC(=O)O)C(=O)O)cc1 (stereo not drawn) [compound 7] | 0.99 | 1.19 | 1.04 | 0.76 | 0.96 | 1.32 |  |  |  |  |
